# Results: US20240252650A1, “LIPID COMPOUNDS AND LIPID NANOPARTICLE COMPOSITIONS” (SUZHOU ABOGEN BIOSCIENCES CO., LTD., priority 2021, published 2024)
# Columns and labels:
# [1] = system: female Balb/c mice; assay: Animal study: LNPs encapsulating luciferase mRNA, tail vein injection, organ bioluminescence imaging (IVIS Spectrum CT); type: in vivo; details: luciferase mRNA LNP, 0.25 mg/kg tail vein; for bone marrow* Avg Radiance: bone marrow at 6 h; for brain* Avg Radiance: dissected brain at 6 h; for heart* Avg Radiance: dissected heart at 6 h; for kidney* Avg Radiance: dissected kidney at 6 h; for liver* Avg Radiance: dissected liver at 6 h; for lung* Avg Radiance: dissected lung at 6 h; for spleen* Avg Radiance: dissected spleen at 6 h; for luciferase expression in bone marrow (in words): 6 h
# Procedure: Lipid nanoparticles comprising certain compounds provided herein encapsulating luciferase encoding (luciferase) mRNA were systemically administered to 6-8 week old female Balb/c mice (Charles River Lab, ZheJiang) at 0.25 mg/kg dose by tail vein injection, and mice blood were sampled at specific time points (e.g., 6 hours) post administration. Optical imaging was performed using the IVIS Spectrum CT device (PerkinElmer Inc., Paris, France). The luminescence level was evaluated by an ROI applied to the injection site zone (Living Image software, PerkinElmer Inc., Paris, France).
# Radiance of heart, liver, spleen, lung, kidney, brain and bone marrow were taken at 6 h. Dissected organs were placed on a black sheet and imaged with IVIS Spectrum CT (PerkinElmer, Hopkinton, MA). To quantify bioluminescence emission signal, identical regions of interest (ROI) were positioned to encircle each organ region, the imaging signal was quantitated as average radiance (photons/s/cm2/steradian).
# [2] = Encapsulation efficiency of lipid nanoparticles (Quant-it Ribogreen RNA quantification assay); type: physicochemical
# Procedure: (§1) Briefly, a cationic lipid provided herein, DSPC, cholesterol, and PEG-lipid were solubilized in ethanol at a molar ratio of 50:10:38.5:1.5, and mRNA were diluted in 10 to 50 mM citrate buffer, pH=4. The LNPs were prepared at a total lipid to mRNA weight ratio of approximately 10:1 to 30:1 by mixing the ethanolic lipid solution with the aqueous mRNA solution at a volume ratio of 1:3 using a microfluidic apparatus, total flow rate ranging from 9-30 mL/min. Ethanol were thereby removed and replaced by DPBS using dialysis. Finally, the lipid nanoparticles were filtered through a 0.2 μm sterile filter.
# (§2) Lipid nanoparticle size were determined by dynamic light scattering using a Malvern Zetasizer Nano ZS (Malvern UK) using a 173° backscatter detection mode. The encapsulation efficiency of lipid nanoparticles were determined using a Quant-it Ribogreen RNA quantification assay kit (Thermo Fisher Scientific, UK) according to the manufacturer's instructions.
# [3] = Lipid nanoparticle size and polydispersity by dynamic light scattering (Malvern Zetasizer Nano ZS); type: physicochemical
# Procedure: as §1, §2
# [4] = Apparent pKa of LNP formulations by TNS fluorescence assay; type: physicochemical; details: LNP cationic lipid/DSPC/cholesterol/DMG-PEG 50/10/38.5/1.5 mol %
# Procedure: As reported in literature, the apparent pKa of LNP formulations correlates with the delivery efficiency of LNPs for nucleic acids in vivo. The apparent pKa of each formulation was determined using an assay based on fluorescence of 2-(p-toluidino)-6-napthalene sulfonic acid (TNS). LNP formulations comprising of cationic lipid/DSPC/cholesterol/DMG-PEG (50/10/38.5/1.5 mol %) in PBS were prepared as described above. TNS was prepared as a 300 uM stock solution in distilled water. LNP formulations were diluted to 0.1 mg/ml total lipid in 3 mL of buffered solutions containing 50 mM sodium citrate, 50 mM sodium phosphate, 50 mM sodium borate, and 30 mM sodium chloride where the pH ranged from 3 to 9. An aliquot of the TNS solution was added to give a final concentration of 0.1 mg/ml and following vortex mixing fluorescence intensity was measured at room temperature in a Molecular Devices Spectramax iD3 spectrometer using excitation and mission wavelengths of 325 nm and 435 nm. A sigmoidal best fit analysis was applied to the fluorescence data and the pKa value was measured as the pH giving rise to half-maximal fluorescent intensity.
# [5] = LNP: cationic lipid/DSPC/cholesterol/PEG-lipid 50:10:38.5:1.5, mRNA, table of Example 15
# [6] = LNP encapsulating hEPO mRNA, table of Example 16
Structure (SMILES),bone marrow* Avg Radiance [1],brain* Avg Radiance [1],heart* Avg Radiance [1],kidney* Avg Radiance [1],liver* Avg Radiance [1],lung* Avg Radiance [1],spleen* Avg Radiance [1],"Encapsulation Efficiency [2, 5] [%]","polydispersity [3, 5]","size (nm) [3, 5] [nm]",Apparant Pka ([4]; table of Example 15),luciferase expression in bone marrow (in words) [1],"Encapsulation Efficiency [2, 6] [%]","polydispersity [3, 6]","size (nm) [3, 6] [nm]",Apparant Pka ([4]; table of Example 16)
CCCCC/C=C\C/C=C\CCCCCCCC(=O)OCC(COC(=O)CCCCN(CCOCCO)C1CCC1)COC(=O)CCCC(COC(=O)CCCCCCC)COC(=O)CCCCCCC (stereo not drawn) [Compound 125],−0.94 E+04 p/s/cm^2/sr,4.61 E+04 p/s/cm^2/sr,5.27 E+04 p/s/cm^2/sr,8.4 E+04 p/s/cm^2/sr,16.61 E+06 p/s/cm^2/sr,7.67 E+04 p/s/cm^2/sr,2.24 E+06 p/s/cm^2/sr,87.71,0.025,83.81,6.863,,,,,
CCCCC/C=C\C/C=C\CCCCCCCC(=O)OCC(COC(=O)CCC(OCCCCCCCC)OCCCCCCCC)COC(=O)OCCCN(CCO)C1CCCCC1 (stereo not drawn) [Compound 126],−1.44 E+04 p/s/cm^2/sr,10.48 E+04 p/s/cm^2/sr,23.71 E+04 p/s/cm^2/sr,29.29 E+04 p/s/cm^2/sr,54.3 E+06 p/s/cm^2/sr,15.58 E+04 p/s/cm^2/sr,0.73 E+06 p/s/cm^2/sr,91.87,0.039,71.38,6.154,,,,,
CCCCC/C=C\C/C=C\CCCCCCCC(=O)OCC(COC(=O)CCCCN(CCO)C1CCC1)COC(=O)CCC(OCCCCCCCC)OCCCCCCCC (stereo not drawn) [Compound 116],−0.16 E+04 p/s/cm^2/sr,13.52 E+04 p/s/cm^2/sr,12.65 E+04 p/s/cm^2/sr,28.62 E+04 p/s/cm^2/sr,40.56 E+06 p/s/cm^2/sr,17.29 E+04 p/s/cm^2/sr,1.38 E+06 p/s/cm^2/sr,92.40,0.049,78.48,6.881,,,,,
CCCCC/C=C\C/C=C\CCCCCCCC(=O)OCC(COC(=O)CCCC(COC(=O)CCCCCCC)COC(=O)CCCCCCC)COC(=O)OCCCN(CCOCCO)C1CCC1 (stereo not drawn) [Compound 127],0.95 E+04 p/s/cm^2/sr,3.91 E+04 p/s/cm^2/sr,4.33 E+04 p/s/cm^2/sr,10.77 E+04 p/s/cm^2/sr,13.01 E+06 p/s/cm^2/sr,9.38 E+04 p/s/cm^2/sr,4.76 E+06 p/s/cm^2/sr,85.39,0.037,87.99,6.398,mild expression,,,,
CCCCC/C=C\C/C=C\CCCCCCCC(=O)OCC(COC(=O)CCCC(COC(=O)CCCCCCC)COC(=O)CCCCCCC)COC(=O)OCCCN(CCO)CCCC (stereo not drawn) [Compound 105],,,,,,,,,,,,,89.77,0.06244,80.11,6.262
CCCCC/C=C\C/C=C\CCCCCCCC(=O)OCC(COC(=O)CCCCN(CCO)C1CCC1)COC(=O)CCCC(COC(=O)CCCCCCC)COC(=O)CCCCCCC (stereo not drawn) [Compound 4],,,,,,,,,,,,,91.42,0.090,93.73,6.881
CCCCCCCCCCCCC(=O)OCC(COC(=O)CCCCN(CCO)C1CCC1)COC(=O)CCCC(COC(=O)CCCCCCC)COC(=O)CCCCCCC (stereo not drawn) [Compound 18],,,,,,,,,,,,,78.25,0.031,84.24,6.915
C=CCN(CCO)CCCCC(=O)OCC(COC(=O)CCCCCCCCCCCCCCCCC)COC(=O)CCCC(COC(=O)CCCCCCC)COC(=O)CCCCCCC (stereo not drawn) [Compound 84],,,,,,,,,,,,,92.56,0.069,84.76,6.597
CCCCC/C=C\C/C=C\CCCCCCCC(=O)OCC(COC(=O)CCCCCCC/C=C\C/C=C\CCCCC)COC(=O)CCCCCCCN(CCO)C1CCC1 [Compound 124],2.2 E+04 p/s/cm^2/sr,16.34 E+04 p/s/cm^2/sr,32.73 E+04 p/s/cm^2/sr,34.36 E+04 p/s/cm^2/sr,47.09 E+06 p/s/cm^2/sr,16.04 E+04 p/s/cm^2/sr,11.21 E+06 p/s/cm^2/sr,90.85,0.078,90.89,7.1,mild expression,,,,
CCCCCCCCC(CCCCCCCC)COC(=O)CCOCC(COCCC(=O)OCC(CCCCCCCC)CCCCCCCC)COC(=O)CCCCN(CCO)C1CCC1 [Compound 100],,,,,,,,,,,,,91.54,0.02588,67.27,6.535
CCCCCCCCCCCCCCCCCC(=O)OCC(COC(=O)CCCC(COC(=O)CCCCCCC)COC(=O)CCCCCCC)OC(=O)CCCCN(CCO)C1CCC1 (stereo not drawn) [Compound 114],0.2 E+04 p/s/cm^2/sr,6.01 E+04 p/s/cm^2/sr,5.49 E+04 p/s/cm^2/sr,7.63 E+04 p/s/cm^2/sr,21.27 E+06 p/s/cm^2/sr,6.22 E+04 p/s/cm^2/sr,2.7 E+06 p/s/cm^2/sr,87.34,0.206,89.95,7.194,mild expression,,,,
CCCCCCCC(=O)OCC(CCCC(=O)OCC(COC(=O)CCCCCCC)COC(=O)CCCCCCN(CCO)C1CCC1)COC(=O)CCCCCCC (stereo not drawn) [Compound 78],0.51 E+04 p/s/cm^2/sr,3.25 E+04 p/s/cm^2/sr,3.65 E+04 p/s/cm^2/sr,7.88 E+04 p/s/cm^2/sr,11.41 E+06 p/s/cm^2/sr,3.83 E+04 p/s/cm^2/sr,2.07 E+06 p/s/cm^2/sr,87.30,0.043,132,6.864,mild expression,,,,
CCCCC/C=C\C/C=C\CCCCCCCC(=O)OCC(COC(=O)CCCC(COC(=O)CCCCCCC)COC(=O)CCCCCCC)COC(=O)OCCCN(CCC)CCO (stereo not drawn) [Compound 87],,,,,,,,,,,,,93.62,0.034,99.16,6.384
CCCCCCCCCC(=O)OCC(COC(=O)CCCCCN(CCO)C1CCC1)COC(=O)CCCC(COC(=O)CCCCCCC)COC(=O)CCCCCCC (stereo not drawn) [Compound 58],,,,,,,,,,,,,77.87,0.129,104.3,6.97
CCCCCCCCC(=O)OCC(COC(=O)CCCCCCCN(CCO)C1CCC1)COC(=O)CCCC(COC(=O)CCCCCCC)COC(=O)CCCCCCC (stereo not drawn) [Compound 46],,,,,,,,,,,,,89.87,0.069,158.9,7.088
CCCCCCCC(=O)OCC(CCCC(=O)OCC(COC(=O)CCCC(COC(=O)CCCCCCC)COC(=O)CCCCCCC)COC(=O)OCCN(C)CCO)COC(=O)CCCCCCC [Compound 91],,,,,,,,,,,,,86.02,0.023,72.66,5.811
